Results from ChEMBL document CHEMBL1201862, “PubChem BioAssay data set” (2004).
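The compound was tested at five concentrations on cells cultured in 96-well plates, with a 48-hour exposure period. The concentration for 50% growth inhibition is given as GI50.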 Calls of active or inactive are those of the source. Cut-off read from the data, not from the text of the source: active = GI50 up to about 1.1 µM and inactive = higher.

Columns and labels:
Assay in all cases: growth of human tumour cells (NCI), 48 h
SK-MEL-28 = system: SK-MEL-28
MCF7 = system: MCF7
Hs-578T = system: Hs-578T
U-251 = system: U-251
HL-60 = system: HL-60
RPMI-8226 = system: RPMI-8226
SR = system: SR
KM12 = system: KM12
CAKI-1 = system: CAKI-1
SF-539 = system: SF-539
HT-29 = system: HT-29
MDA-MB-231 = system: MDA-MB-231
RXF 393 = system: RXF 393
OVCAR-8 = system: OVCAR-8
UACC-257 = system: UACC-257
T47D = system: T47D
ACHN = system: ACHN
OVCAR-4 = system: OVCAR-4
A549 = system: A549
Malme-3M = system: Malme-3M
IGROV-1 = system: IGROV-1
NCI-H522 = system: NCI-H522
SNB-75 = system: SNB-75
SK-MEL-2 = system: SK-MEL-2
NCI-H226 = system: NCI-H226
TK-10 = system: TK-10
HCC 2998 = system: HCC 2998
NCI/ADR-RES = system: NCI/ADR-RES
HCT-116 = system: HCT-116
K562 = system: K562
HOP-92 = system: HOP-92
DU-145 = system: DU-145
HOP-62 = system: HOP-62
A498 = system: A498
COLO 205 = system: COLO 205
UACC-62 = system: UACC-62
SF-268 = system: SF-268
NCI-H23 = system: NCI-H23
MDA-N = system: MDA-N
OVCAR-3 = system: OVCAR-3
MOLT-4 = system: MOLT-4
UO-31 = system: UO-31
EKVX = system: EKVX
NCI-H460 = system: NCI-H460
SK-MEL-5 = system: SK-MEL-5
MDA-MB-435 = system: MDA-MB-435
LOX IMVI = system: LOX IMVI
SF-295 = system: SF-295
OVCAR-5 = system: OVCAR-5
PC-3 = system: PC-3
BT-549 = system: BT-549
786-0 = system: 786-0
SN12C = system: SN12C
SW-620 = system: SW-620
CCRF-CEM = system: CCRF-CEM
HCT-15 = system: HCT-15
M14 = system: M14
SNB-19 = system: SNB-19
SK-OV-3 = system: SK-OV-3

C=C1CCC2CC1[C@@H](C(=O)c1c[nH]c3ccccc13)NC2(C)C (stereo partly specified)
GI50 (SK-MEL-28): > 37.5 µM (inactive)
GI50 (MCF7): > 37.5 µM (inactive)
GI50 (Hs-578T): > 37.5 µM (inactive)
GI50 (U-251): > 37.5 µM (inactive)
GI50 (HL-60): 34.8 µM (inactive)
GI50 (RPMI-8226): > 37.5 µM (inactive)
GI50 (SR): 33 µM (inactive)
GI50 (KM12): > 37.5 µM (inactive)
GI50 (CAKI-1): 8.51 µM (inactive)
GI50 (SF-539): > 37.5 µM (inactive)
GI50 (HT-29): 29.7 µM (inactive)
GI50 (MDA-MB-231): > 37.5 µM (inactive)
GI50 (RXF 393): > 37.5 µM (inactive)
GI50 (OVCAR-8): > 37.5 µM (inactive)
GI50 (UACC-257): > 37.5 µM (inactive)
GI50 (T47D): 30.6 µM (inactive)
GI50 (ACHN): > 37.5 µM (inactive)
GI50 (OVCAR-4): > 37.5 µM (inactive)
GI50 (A549): > 37.5 µM (inactive)
GI50 (Malme-3M): > 37.5 µM (inactive)
GI50 (IGROV-1): > 37.5 µM (inactive)
GI50 (NCI-H522): > 37.5 µM (inactive)
GI50 (SNB-75): > 37.5 µM (inactive)
GI50 (SK-MEL-2): 27.1 µM (inactive)
GI50 (NCI-H226): > 37.5 µM (inactive)
GI50 (TK-10): > 37.5 µM (inactive)
GI50 (HCC 2998): 10.7 µM (inactive)
GI50 (NCI/ADR-RES): > 37.5 µM (inactive)
GI50 (HCT-116): > 37.5 µM (inactive)
GI50 (K562): 21.9 µM (inactive)
GI50 (HOP-92): 13.2 µM (inactive)
GI50 (DU-145): > 37.5 µM (inactive)
GI50 (HOP-62): > 37.5 µM (inactive)
GI50 (A498): > 37.5 µM (inactive)
GI50 (COLO 205): 35 µM (inactive)
GI50 (UACC-62): 18.7 µM (inactive)
GI50 (SF-268): > 37.5 µM (inactive)
GI50 (NCI-H23): > 37.5 µM (inactive)
GI50 (MDA-N): > 37.5 µM (inactive)
GI50 (OVCAR-3): > 37.5 µM (inactive)
GI50 (MOLT-4): > 37.5 µM (inactive)
GI50 (UO-31): 29.5 µM (inactive)
GI50 (EKVX): > 37.5 µM (inactive)
GI50 (NCI-H460): > 37.5 µM (inactive)
GI50 (SK-MEL-5): > 37.5 µM (inactive)
GI50 (MDA-MB-435): > 37.5 µM (inactive)
GI50 (LOX IMVI): > 37.5 µM (inactive)
GI50 (SF-295): > 37.5 µM (inactive)
GI50 (OVCAR-5): > 37.5 µM (inactive)
GI50 (PC-3): 19.5 µM (inactive)
GI50 (BT-549): > 37.5 µM (inactive)
GI50 (786-0): > 37.5 µM (inactive)
GI50 (SN12C): > 37.5 µM (inactive)
GI50 (SW-620): > 37.5 µM (inactive)
GI50 (CCRF-CEM): > 37.5 µM (inactive)
GI50 (HCT-15): > 37.5 µM

CC(=O)O[C@H]1C(=O)[C@@]2(C)[C@H]([C@H](OC(=O)c3ccccc3)[C@]3(O)C[C@H](OC(=O)[C@H](O)[C@@H](NC(=O)c4ccoc4)c4ccccc4)C(C)=C1C3(C)C)[C@]1(OC(C)=O)CO[C@@H]1C[C@@H]2O
GI50 (SK-MEL-28): 0.0532 µM (active)
GI50 (MCF7): 0.0265 µM (active)
GI50 (Hs-578T): 0.0246 µM (active)
GI50 (U-251): 0.00791 µM (active)
GI50 (HL-60): 0.0136 µM (active)
GI50 (RPMI-8226): 0.00871 µM (active)
GI50 (SR): 0.0355 µM (active)
GI50 (KM12): < 0.01 µM (active)
GI50 (SF-539): 0.0292 µM (active)
GI50 (HT-29): < 0.01 µM (active)
GI50 (MDA-MB-231): 0.0434 µM (active)
GI50 (RXF 393): < 0.01 µM (active)
GI50 (OVCAR-8): 0.067 µM (active)
GI50 (UACC-257): 16 µM (inactive)
GI50 (T47D): 0.0307 µM (active)
GI50 (ACHN): 0.37 µM (active)
GI50 (OVCAR-4): 31.1 µM (inactive)
GI50 (A549): 0.0386 µM (active)
GI50 (IGROV-1): 0.016 µM (active)
GI50 (NCI-H522): < 0.01 µM (active)
GI50 (SNB-75): 0.0112 µM (active)
GI50 (SK-MEL-2): 0.0225 µM (active)
GI50 (NCI-H226): 0.0386 µM (active)
GI50 (TK-10): 0.0861 µM (active)
GI50 (HCC 2998): 0.0216 µM (active)
GI50 (NCI/ADR-RES): 44 µM (inactive)
GI50 (HCT-116): 0.0147 µM (active)
GI50 (K562): 0.016 µM (active)
GI50 (M14): 0.09 µM (active)
GI50 (HOP-92): 0.552 µM (active)
GI50 (DU-145): 0.0624 µM (active)
GI50 (HOP-62): 0.212 µM (active)
GI50 (A498): 0.0713 µM (active)
GI50 (SNB-19): 0.0946 µM (active)
GI50 (COLO 205): 0.026 µM (active)
GI50 (UACC-62): 0.0776 µM (active)
GI50 (SF-268): 0.0325 µM (active)
GI50 (NCI-H23): 0.0261 µM (active)
GI50 (MDA-N): 0.00361 µM (active)
GI50 (OVCAR-3): < 0.01 µM (active)
GI50 (MOLT-4): 0.0332 µM (active)
GI50 (UO-31): 3.39 µM (inactive)
GI50 (EKVX): 0.897 µM (active)
GI50 (NCI-H460): 0.023 µM (active)
GI50 (SK-MEL-5): 0.028 µM (active)
GI50 (MDA-MB-435): 0.0071 µM (active)
GI50 (LOX IMVI): 0.0215 µM (active)
GI50 (SF-295): < 0.01 µM (active)
GI50 (OVCAR-5): 0.0256 µM (active)
GI50 (PC-3): 0.0212 µM (active)
GI50 (BT-549): < 0.01 µM (active)
GI50 (786-0): 0.18 µM (active)
GI50 (SN12C): 0.0338 µM (active)
GI50 (SW-620): 0.021 µM (active)
GI50 (CCRF-CEM): 0.0379 µM (active)
GI50 (SK-OV-3): 0.358 µM (active)
GI50 (HCT-15): 0.757 µM

COc1cccc(C2c3cc4c(cc3OC(C)(O)C2C)OCO4)c1O (stereo unspecified)
GI50 (SK-MEL-28): 10.5 µM (inactive)
GI50 (MCF7): 4.25 µM (inactive)
GI50 (Hs-578T): 2.68 µM (inactive)
GI50 (U-251): 3.83 µM (inactive)
GI50 (HL-60): 2.82 µM (inactive)
GI50 (RPMI-8226): 4.17 µM (inactive)
GI50 (SR): 2.18 µM (inactive)
GI50 (KM12): 3.33 µM (inactive)
GI50 (SF-539): 2.67 µM (inactive)
GI50 (HT-29): 3.88 µM (inactive)
GI50 (MDA-MB-231): 0.897 µM (active)
GI50 (RXF 393): 3.69 µM (inactive)
GI50 (OVCAR-8): 4.94 µM (inactive)
GI50 (UACC-257): 8.15 µM (inactive)
GI50 (T47D): 3.82 µM (inactive)
GI50 (ACHN): 7.06 µM (inactive)
GI50 (OVCAR-4): 11.6 µM (inactive)
GI50 (A549): 4.57 µM (inactive)
GI50 (Malme-3M): 6.18 µM (inactive)
GI50 (IGROV-1): 5.2 µM (inactive)
GI50 (NCI-H522): 2.27 µM (inactive)
GI50 (SNB-75): 5 µM (inactive)
GI50 (SK-MEL-2): 9.89 µM (inactive)
GI50 (NCI-H226): 5.12 µM (inactive)
GI50 (TK-10): 5.56 µM (inactive)
GI50 (HCC 2998): 4.2 µM (inactive)
GI50 (NCI/ADR-RES): 2.13 µM (inactive)
GI50 (HCT-116): 3.64 µM (inactive)
GI50 (K562): 3.87 µM (inactive)
GI50 (M14): 3.48 µM (inactive)
GI50 (HOP-92): 6 µM (inactive)
GI50 (DU-145): 4.48 µM (inactive)
GI50 (HOP-62): 4.2 µM (inactive)
GI50 (A498): 3.24 µM (inactive)
GI50 (SNB-19): 5.2 µM (inactive)
GI50 (COLO 205): 2.19 µM (inactive)
GI50 (UACC-62): 5.12 µM (inactive)
GI50 (SF-268): 8.79 µM (inactive)
GI50 (NCI-H23): 0.966 µM (active)
GI50 (MDA-N): 1.48 µM (inactive)
GI50 (OVCAR-3): 2.81 µM (inactive)
GI50 (MOLT-4): 5.25 µM (inactive)
GI50 (UO-31): 6.14 µM (inactive)
GI50 (EKVX): 13.6 µM (inactive)
GI50 (NCI-H460): 3.81 µM (inactive)
GI50 (SK-MEL-5): 2.84 µM (inactive)
GI50 (MDA-MB-435): 1.42 µM (inactive)
GI50 (LOX IMVI): 5.12 µM (inactive)
GI50 (SF-295): 2.96 µM (inactive)
GI50 (OVCAR-5): 8.09 µM (inactive)
GI50 (PC-3): 3.37 µM (inactive)
GI50 (BT-549): 9.71 µM (inactive)
GI50 (786-0): 4.44 µM (inactive)
GI50 (SN12C): 5.27 µM (inactive)
GI50 (SW-620): 3.25 µM (inactive)
GI50 (CCRF-CEM): 4.45 µM (inactive)
GI50 (SK-OV-3): 3.57 µM (inactive)
GI50 (HCT-15): 3.64 µM
